Columns and labels:
L1210 cells = test: Growth inhibition / cytotoxicity, murine leukemia L1210 cells in culture; assay type: cell-based
HL60 cells = conditions: lower with HL60; literature (13); cited from earlier work
[1] = tested on: B16 melanotic melanoma cells; test: Growth inhibition, B16 melanotic melanoma cells in culture; assay type: cell-based, murine
Description: As a consequence, they are the strongest competitive inhibitors of human GlxI yet described, Table 1. […] With both cell lines there was some correlation between the Ki values of the enediol analogs and the IC50 values of the corresponding diethyl esters.
^d Sp-bromobenzylglutathione diethyl ester. Cells were incubated for
48 h in RPMI 1640/10% fetal calf serum (37° C.) in the absence and
in the presence of enzyme inhibitor. After the initial addition of
inhibitor at time zero, fresh inhibitor was added every 12 h in order to
compensate partially for the loss of inhibitor due to spontaneous
hydrolytic deethylation in the growth medium.

human erythrocyte GlxI = conditions: of the unethylated species with human erythrocyte GlxI (17); read-out: Ki, competitive inhibition constant; cited from earlier work
GlxII = conditions: cited from earlier work
splenic lymphocytes = test: Toxicity toward nonproliferating splenic lymphocytes; assay type: cell-based; conditions: L1210 cells versus splenic lymphocytes
Description: Conditions: See Table 1. Error bars represent standard deviations for triplicate determinations. Different symbols correspond to experiments carried out on different days.
This is illustrated for 2(Et)2 and S-p-bromobenzylglutathionediethyl ester by the dose-response curves of FIG. 3. […] Therefore, tumor cells might not be able to detoxify the inhibitors as rapidly as normal cells. In order to determine whether this could be a factor in the present study, the glyoxalase activities in both L1210 cells and splenic lymphocytes were determined. Indeed, while the GlxI activities in the two cell lines are nearly equal, the GlxII activity in L1210 cells is about 10-fold lower than that in splenic lymphocytes. The activities of GlxI and GlxII in L1210 cells were respectively 0.31±0.03 U/mg and 0.02±0.003 U/mg, while the activities in splenic lymphocytes were respectively 0.36±0.03U/mg and 0.20±0.03 U/mg.

human tumor cell lines = conditions: literature; cited from earlier work

CCOC(=O)CNC(=O)[C@H](CSCc1ccc(Br)cc1)NC(=O)CC[C@H](N)C(=O)OCC [p-BrbzylSG(Et)2, Sp-bromobenzylglutathione diethyl ester, reference compound]
relative potency, L1210 (L1210 cells; L1210 cells): as potent as 2(Et)2 and 3(Et)2
IC50 (L1210 cells; Mus musculus, L1210, 48 h, RPMI 1640/10% fetal calf serum, 37° C., fresh inhibitor every 12 h, mean ± SD, read-out: IC50, 50% growth inhibition, L1210): 9.8 ± 3.2 µM
IC50 with HL60 cells versus nonproliferating human neutrophils (HL60 cells): about 5 -fold
IC50 ([1]; Mus musculus, 48 h, RPMI 1640/10% fetal calf serum, 37° C., fresh inhibitor every 12 h, mean ± SD, read-out: IC50, 50% growth inhibition, B16): 15 ± 5 µM
relative potency, B16 ([1]; versus 3(Et)2): about half as potent as 3(Et)2
Ki (human erythrocyte GlxI): 0.17 µM
substrate for GlxII in words (GlxII): cannot serve as a substrate for GlxII
toxicity to splenic lymphocytes / selectivity in words (splenic lymphocytes; listed as S-p-Bromobenzylglutathione diethyl ester): selective toxicity
toxicity to splenic lymphocytes / selectivity in words (splenic lymphocytes; listed as S-p-bromobenzylglutathione diethyl ester): significant selective toxicity to L1210 cells
toxicity to human tumor cell lines (human tumor cell lines): toxic to a range of different human tumor cell lines in culture

— patent publication US5969174A, “Competitive inhibitors of glyoxalase I and method of generating such competitive inhibitors inside tumor cells” (priority 1998, dated 1999)
